Activity calls are given as the source filed them. The rule behind the calls is not given here.
Experiments:
Format in all cases: functional, cell-based
A549 [1] = test: Cytotoxicity against human A549 cells assessed as inhibition of cell growth at 40 uM measured after 48 hrs by MTS assay
MCF7 = test: Cytotoxicity against human MCF7 cells assessed as inhibition of cell growth at 40 uM measured after 48 hrs by MTS assay
HL-60 [2] = test: Cytotoxicity against human HL-60 cells assessed as inhibition of cell growth at 40 uM measured after 48 hrs by MTS assay
RAW264.7 = test: Antiinflammatory activity against mouse RAW264.7 cells assessed as inhibition of LPS induced nitric oxide production at 50 uM followed by LPS stimulation incubated for 18 hrs by Griess reagent based assay
SMMC-7721 [3] = test: Cytotoxicity against human SMMC-7721 cells assessed as inhibition of cell growth at 40 uM measured after 48 hrs by MTS assay
SW480 = test: Cytotoxicity against human SW480 cells assessed as inhibition of cell growth at 40 uM measured after 48 hrs by MTS assay
A549 [4] = test: Cytotoxicity against human A549 cells assessed as inhibition of cell growth measured after 48 hrs by MTS assay; settings: A549, 48 h
HL-60 [5] = test: Cytotoxicity against human HL-60 cells assessed as inhibition of cell growth measured after 48 hrs by MTS assay; settings: HL-60, 48 h
SMMC-7721 [6] = test: Cytotoxicity against human SMMC-7721 cells assessed as inhibition of cell growth measured after 48 hrs by MTS assay; settings: SMMC-7721, 48 h

| SMILES | Activity (A549 [1]) | Activity (MCF7) | Activity (HL-60 [2]) | Activity (RAW264.7) | Activity (SMMC-7721 [3]) | Activity (SW480) | IC50 (A549 [4]) [µM] | IC50 (HL-60 [5]) [µM] | IC50 (SMMC-7721 [6]) [µM] |
| --- | --- | --- | --- | --- | --- | --- | --- | --- | --- |
| COC(=O)C12C=CC[C@@H]3[C@@H]1CC[C@H](C)[C@@]31C[C@H](c3ccoc3)O[C@H]1O2 | inactive | inactive | inactive | inactive | inactive | inactive | – | – | – |
| COC(=O)C1=CCC[C@@H]2C13CC[C@H](C)[C@@]21C[C@H](c2ccoc2)O[C@H]1O[C@@H]3O | inactive | inactive | inactive | inactive | inactive | inactive | – | – | – |
| CC(=O)O[C@H]1C(=O)[C@@]2(C)[C@H]([C@H](OC(=O)c3ccccc3)[C@]3(O)C[C@H](OC(=O)[C@H](O)[C@@H](NC(=O)c4ccccc4)c4ccccc4)C(C)=C1C3(C)C)[C@]1(OC(C)=O)CO[C@@H]1C[C@@H]2O [PACLITAXEL] | – | – | – | – | – | – | < 0.008 | < 0.008 | 0.143 |
| CCCCCCCCCC(=O)O[C@@H]1[C@@H](C)[C@@]2(O)[C@@H](C=C(CO)C[C@]3(O)C(=O)C(C)=C[C@@H]23)[C@@H]2C(C)(C)[C@]12OC(C)=O | inactive | inactive | inactive | inactive | inactive | inactive | – | – | – |
| COC(=O)C1=CCC[C@H]2C13CC[C@@H](C)[C@]21C[C@@H](c2ccoc2)O[C@@H]1O3 | inactive | inactive | inactive | inactive | inactive | inactive | – | – | – |
| COC(=O)c1cccc2c1CC[C@@H](C)[C@]21C[C@@H](c2ccoc2)OC1=O | inactive | inactive | inactive | inactive | inactive | inactive | – | – | – |
| COC(=O)C1=CCC[C@@H]2[C@]13CC[C@H](C)[C@@]21C[C@H](c2ccoc2)O[C@H]1OC3=O | inactive | inactive | inactive | inactive | inactive | inactive | – | – | – |
| COC(=O)[C@@H]1C=CC[C@@H]2C13CC[C@@H](C)[C@]21C[C@@H](c2ccoc2)O[C@@H]1O3 | inactive | inactive | inactive | inactive | inactive | inactive | – | – | – |
| COC(=O)C1=CCC[C@H]2C1=CC[C@@H](C)[C@]21C[C@@H](c2ccoc2)OC1=O | inactive | inactive | inactive | inactive | inactive | inactive | – | – | – |
| COc1c(C)cc2c(c1O)[C@]1(C)CCC(=O)C(C)(C)C1=C(O)C2=O | – | – | – | inactive | – | – | 27.4 | 14.4 | 4.47 |

— ChEMBL document CHEMBL4840362, “Diterpenoids from the whole plants of Croton yunnanensis and their bioactivities” (Bioorg Med Chem, 2021)
